Laboratory results: US9878986B2, “Compounds for selective histone deacetylase inhibitors, and pharmaceutical composition comprising the same” (CHONG KUN DANG PHARMACEUTICAL CORP., priority 2013, dated 2018)

Experiments:
HDAC 3 = target: T1, HDAC 3 (Homo sapiens, UniProt O15379); assay: HDAC panel by Reaction Biology Corp., HDAC 3; type: biochemical; conditions: read-out: HDAC inhibitory activities, HDAC 3
T1 construct: Reaction Biology Corp
Text: (§1) The inhibitory activities of Compounds 255 and 374 on all HDACs were confirmed (by Reaction Biology Corp.).

[1] = test system: tubulin acetylation (HDAC6) in RPMI8226 cells; assay: Acetylation of Tubulin in cells by Western blot; type: cell-based; conditions: for concentration at which tubulin acetylation (HDAC6) was expressed: 24 hours
Experimental: To determine the selectivity for HDAC6 in cells, the acetylation levels of Tubulin, Histone H3 and Histone H4 depending on the concentration of compounds were measured by Western blot.
RPMI8226 (1.0×10^6 cells/well) cells were seeded on six-well plates and treated with drugs (Compounds 255 and 374) at each concentration. After 24 hours, the proteins were extracted with RIPA buffer and quantified by the Bradford method. 25 μg of protein was lysed in sample buffer, electrophoresed on a 4-12% gradient gel, and then transferred to nitrocellulose membranes for 50 minutes. Then transferred protein was blocked with 5% skim milk for 1 hour. Anti-acetyl H3 (1:2,000), anti-acetyl H4 (1:5,000), anti-acetyl tubulin (1:5,000), and anti-β-actin antibody (1:10,000) were added into 5% skim milk, and the membranes were immersed in the skim milk, reacted at 4° C. for 16 hours, and then washed three times for 10 minutes each with 1×TBS-T. Then, IgG-HRP antibody (1:5,000) was added into 5% skim milk, and then the membranes were immersed in the skim milk, reacted at room temperature for 40 minutes, and then washed three times for […] each with 1×TBS-T. Then, the acetylation levels were determined with a LAS 3000 using ECL solution.
The acetylation of tubulin, histone H3 and Histone H4 on RPMI8226 cells (1.0×10^6 cells/well) derived from myeloma was determined in the same manner as the cell determination in Example 1.

[2] = test system: adjuvant-induced arthritis models; assay: Adjuvant-induced arthritis models; type: in vivo, Lewis rat; conditions: for clinical score: intraperitoneally, score 0 to 16; for arthritis symptoms improved by: 3, 10 and 30 mg/kg twice a day, versus vehicle group; for efficacy compared with the control compound Tofacitinib: clinical score
Experimental: Complete Freund's Adjuvant (Chondrex) containing 10 mg/mL Heat killed mycobacteria toxin was sufficiently mixed, and then 100 μL was taken and intradermally injected into the upper part of the tail of Lewis rat to induce arthritis. After 10 days, the length of the ankle circumference of rats was measured, and then the rats were grouped and used in the experiment. Each compound was intraperitoneally injected twice a day. The clinical score, the length of the ankle circumference, and the weight were measured twice a week after the administration of the compounds. The clinical scores were assigned from 0 to 4 based on the thesis of Woods, etc. (J. Immunology, 1214-1222, 2001), and the total clinical score was determined by evaluating the feet of each rat and summing up the scores (normal: 0, most severe edema: 16). The length of the ankle circumference was calculated based on the formula of 2×3.14(√(a^2+b^2/2)) after measuring top-bottom sides (a) of the foot and lateral sides (b) of the foot. The final value was determined by averaging the calculated values of each foot.

HDAC1 = HDAC1 (Homo sapiens, UniProt Q13547); assay: HDAC panel by Reaction Biology Corp., HDAC 1; type: biochemical; parameters: Reaction Biology Corp; conditions: Table 15, Reaction Biology Corp.; read-out: HDAC1 inhibitory activity
Text: as §1

HDAC 5 = target: T2, HDAC 5 (Homo sapiens, UniProt Q9UQL6); assay: HDAC panel by Reaction Biology Corp., HDAC 5; type: biochemical; conditions: read-out: HDAC inhibitory activities, HDAC 5
T2 construct: Reaction Biology Corp
Text: as §1

colitis models = assay: Colitis models (dextran sulfate sodium); type: in vivo, C57BL/6J mice; conditions: intraperitoneally twice a day after 8 days from supply of DSS; disease-induced models lost to 17.5 to 18 g
Experimental: 3.0% dextran sulfate sodium (DSS: MP biomedicals) was dissolved in deionized water and supplied to 9-week-old C57BL/6J mice for 5 to 7 days and then water was normally supplied to the mice to induce colitis in animal models. The experimental animals were classified into a solvent control group and each group treated with Compound 254 and Compound 255 as test materials based on the body weight of the experimental animals. The test material was intraperitoneally injected twice a day after 8 days from the supply of DSS. The evaluation of the efficacy in colitis models was made by determining the degree to which the weight, lost due to the disease, was recovered to normal level, and the results are shown in FIG. 6.

RPMI 8226 cells = assay: Combination index for combination treatment with Velcade (MTT cell viability); type: cell-based
Experimental: RPMI 8226 cells were seeded in 96-well U-bottom plate at 3×10^5 cells/ml in 180 μl per well, and 20 μl of test material was added to the plate. The cells were incubated in a 37° C. humidified 5% CO2 incubator for 48 hours, and each 20 μl of 5 mg/ml 2-(4,5-dimethylthiazol-2-yl)-2,5-diphenyltetrazolium bromide (MTT) solution dissolved in PBS was added and incubated again for 4 hours. After the formation of formazan, the medium was completely removed, 200 μl of DMSO was added, and then the absorbance was measured using a microplate reader at 570 nm.
For the quantitative analysis of drug interaction between the novel urea compounds of the present invention and Velcade (BOZ) well known as a therapeutic agent for multiple myeloma, the combination index (CI) of cell fractions on cytotoxicity caused by the drugs was calculated based on the dose-response curve of single and combination treatments. For the analysis of the interaction between two drugs, the CI was measured using Compusyn software (Combosyn Inc.) according to the method of Chou and Talalay (CompuSyn by Ting-Chao Chou and Nick Martin, 2005). The CI is the dose ratio of two anticancer agents treated with the dose of two anticancers at the point representing the equivalent cytotoxic effects. CI<1, CI=1, and CI>1 are interpreted as synergism, additivity, and antagonism, respectively.

[3] = Compound 255 0.25 μM + BOZ (Velcade) 2.5 nM
[4] = Compound 255 0.25 μM + BOZ (Velcade) 5.0 nM
[5] = Compound 255 0.25 μM + BOZ (Velcade) 10.0 nM
[6] = Compound 255 0.5 μM + BOZ (Velcade) 2.5 nM
[7] = Compound 255 0.5 μM + BOZ (Velcade) 5.0 nM
[8] = Compound 255 0.5 μM + BOZ (Velcade) 10.0 nM
[9] = Compound 255 1.0 μM + BOZ (Velcade) 2.5 nM
[10] = Compound 255 1.0 μM + BOZ (Velcade) 5.0 nM
[11] = Compound 255 1.0 μM + BOZ (Velcade) 10.0 nM

Chain of HDAC1 (Q13547 whole entry): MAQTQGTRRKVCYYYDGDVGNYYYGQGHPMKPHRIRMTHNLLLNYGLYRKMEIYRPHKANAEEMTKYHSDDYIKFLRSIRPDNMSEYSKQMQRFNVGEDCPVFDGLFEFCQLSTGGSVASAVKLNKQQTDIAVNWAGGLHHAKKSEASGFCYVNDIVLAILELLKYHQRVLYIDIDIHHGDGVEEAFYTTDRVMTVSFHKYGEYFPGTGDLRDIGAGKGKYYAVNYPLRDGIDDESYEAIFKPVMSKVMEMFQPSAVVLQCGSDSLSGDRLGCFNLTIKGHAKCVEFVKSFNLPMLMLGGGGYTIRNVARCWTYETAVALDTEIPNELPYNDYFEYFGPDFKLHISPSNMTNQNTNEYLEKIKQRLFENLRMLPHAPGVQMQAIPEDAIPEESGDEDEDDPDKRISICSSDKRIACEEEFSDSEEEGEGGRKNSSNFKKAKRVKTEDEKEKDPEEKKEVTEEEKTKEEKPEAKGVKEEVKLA
T1 sequence (O15379 whole entry): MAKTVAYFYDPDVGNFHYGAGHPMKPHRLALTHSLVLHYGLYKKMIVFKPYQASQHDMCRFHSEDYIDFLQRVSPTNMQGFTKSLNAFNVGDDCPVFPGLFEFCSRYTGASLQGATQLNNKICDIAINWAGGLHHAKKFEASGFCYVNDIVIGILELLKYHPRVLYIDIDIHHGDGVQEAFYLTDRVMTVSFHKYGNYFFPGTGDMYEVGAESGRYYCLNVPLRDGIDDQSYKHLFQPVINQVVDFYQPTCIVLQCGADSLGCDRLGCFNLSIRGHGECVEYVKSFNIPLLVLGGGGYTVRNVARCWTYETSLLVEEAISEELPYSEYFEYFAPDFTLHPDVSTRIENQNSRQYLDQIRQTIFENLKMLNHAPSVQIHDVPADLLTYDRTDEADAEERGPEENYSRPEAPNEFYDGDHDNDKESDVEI
T1 sequence (Q9Y618 395-489 partner limits assumed): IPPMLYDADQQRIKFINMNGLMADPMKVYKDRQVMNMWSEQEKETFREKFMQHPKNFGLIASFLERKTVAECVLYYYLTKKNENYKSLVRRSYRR
T2 sequence (Q9UQL6 whole entry): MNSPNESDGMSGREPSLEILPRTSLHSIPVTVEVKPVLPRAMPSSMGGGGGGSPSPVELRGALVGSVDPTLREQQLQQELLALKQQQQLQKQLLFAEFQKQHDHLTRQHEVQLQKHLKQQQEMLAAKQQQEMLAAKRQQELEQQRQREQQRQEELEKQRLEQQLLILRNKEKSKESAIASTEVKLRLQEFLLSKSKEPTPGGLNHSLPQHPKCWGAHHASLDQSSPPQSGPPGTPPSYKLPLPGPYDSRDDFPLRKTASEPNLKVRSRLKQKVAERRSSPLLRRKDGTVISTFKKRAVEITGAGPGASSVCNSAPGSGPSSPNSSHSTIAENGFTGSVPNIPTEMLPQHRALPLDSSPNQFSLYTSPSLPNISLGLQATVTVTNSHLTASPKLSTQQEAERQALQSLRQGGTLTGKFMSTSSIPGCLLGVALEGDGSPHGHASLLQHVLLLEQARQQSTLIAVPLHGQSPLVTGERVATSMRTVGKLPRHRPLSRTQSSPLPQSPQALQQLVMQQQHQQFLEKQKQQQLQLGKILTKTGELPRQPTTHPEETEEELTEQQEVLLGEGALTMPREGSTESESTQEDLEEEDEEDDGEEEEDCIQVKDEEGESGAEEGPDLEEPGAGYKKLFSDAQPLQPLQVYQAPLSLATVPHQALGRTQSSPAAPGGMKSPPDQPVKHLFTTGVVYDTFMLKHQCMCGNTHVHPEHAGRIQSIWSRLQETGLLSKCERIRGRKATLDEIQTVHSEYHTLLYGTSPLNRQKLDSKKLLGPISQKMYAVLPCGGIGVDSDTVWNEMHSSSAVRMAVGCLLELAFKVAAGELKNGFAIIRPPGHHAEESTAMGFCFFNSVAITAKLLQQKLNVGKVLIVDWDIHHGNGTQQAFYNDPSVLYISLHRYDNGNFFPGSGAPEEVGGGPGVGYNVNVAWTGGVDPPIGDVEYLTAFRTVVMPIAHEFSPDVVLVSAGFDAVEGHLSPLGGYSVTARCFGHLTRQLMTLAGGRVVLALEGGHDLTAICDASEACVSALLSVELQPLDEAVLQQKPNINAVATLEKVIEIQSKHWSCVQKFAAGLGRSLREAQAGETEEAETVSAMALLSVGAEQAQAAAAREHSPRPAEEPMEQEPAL

With O=C(NO)c1ccc(CN(C(=O)N2CCOCC2)c2cccc(C(F)(F)F)c2)cc1 [Compound 374, N-(4-(hydroxycarbamoyl)benzyl)-N-(3-(trifluoromethyl)phenyl)morpholine-4-carboxamide] the IC50 (HDAC 3) was 10.3 µM, the “cell selectivity (tubulin versus histone acetylation)” value [1] was “excellent cell selectivity” and the “concentration at which tubulin acetylation (HDAC6) was expressed” value [1] was “about 10 nM”. For the same compound, the clinical score ([2]; 3 mg/kg twice a day) was 2.5, the clinical score ([2]; 10 mg/kg twice a day) was 0.8 and the clinical score ([2]; 30 mg/kg twice a day) was 1.3. For the same compound, the “arthritis symptoms improved by” value [2] was 70 to 90%, the “efficacy compared with the control compound Tofacitinib” value [2] was “equivalent efficacy” and the IC50 (HDAC1) was 2120 nM.
For O=C(NO)c1ccc(CN(C(=O)N2CCOCC2)c2cccc(Br)c2)cc1 [Compound 255, N-(3-bromophenyl)-N-(4-(hydroxycarbamoyl)benzyl)morpholine-4-carboxamide], the IC50 (HDAC 3) was 1.63 µM, the IC50 (HDAC 5) was 8.27 µM and the “cell selectivity (tubulin versus histone acetylation)” value [1] was “excellent cell selectivity”. For the same compound, the “concentration at which tubulin acetylation (HDAC6) was expressed” value [1] was “about 10 nM”, the clinical score ([2]; 3 mg/kg twice a day) was 3.0 and the clinical score ([2]; 10 mg/kg twice a day) was 2.6. For the same compound, the clinical score ([2]; 30 mg/kg twice a day) was 0.7, the “arthritis symptoms improved by” value [2] was 40 to 90% and the “efficacy compared with the control compound Tofacitinib” value [2] was “equivalent efficacy”. The “weight recovered to” value (colitis models) was 19 to 19.5 g, the “CI (1)” value (RPMI 8226 cells; [3]) was 1.182 and the “CI (2)” value (RPMI 8226 cells; [3]) was 1.034. For the same compound, the “CI (3)” value (RPMI 8226 cells; [3]) was 1.068, the “CI (1)” value (RPMI 8226 cells; [4]) was 0.560 and the “CI (2)” value (RPMI 8226 cells; [4]) was 0.710. The “CI (3)” value (RPMI 8226 cells; [4]) was 0.737, the “CI (1)” value (RPMI 8226 cells; [5]) was 0.482 and the “CI (2)” value (RPMI 8226 cells; [5]) was 0.309. For the same compound, the “CI (3)” value (RPMI 8226 cells; [5]) was 0.417, the “CI (1)” value (RPMI 8226 cells; [6]) was 1.120 and the “CI (2)” value (RPMI 8226 cells; [6]) was 1.115. For the same compound, the “CI (3)” value (RPMI 8226 cells; [6]) was 1.087, the “CI (1)” value (RPMI 8226 cells; [7]) was 0.751 and the “CI (2)” value (RPMI 8226 cells; [7]) was 0.789. For the same compound, the “CI (3)” value (RPMI 8226 cells; [7]) was 0.727, the “CI (1)” value (RPMI 8226 cells; [8]) was 0.491 and the “CI (2)” value (RPMI 8226 cells; [8]) was 0.529. The “CI (3)” value (RPMI 8226 cells; [8]) was 0.428, the “CI (1)” value (RPMI 8226 cells; [9]) was 0.940 and the “CI (2)” value (RPMI 8226 cells; [9]) was 1.146. The “CI (3)” value (RPMI 8226 cells; [9]) was 0.998, the “CI (1)” value (RPMI 8226 cells; [10]) was 0.469 and the “CI (2)” value (RPMI 8226 cells; [10]) was 0.679. The “CI (3)” value (RPMI 8226 cells; [10]) was 0.475, the “CI (1)” value (RPMI 8226 cells; [11]) was 0.416 and the “CI (2)” value (RPMI 8226 cells; [11]) was 0.518. The “CI (3)” value (RPMI 8226 cells; [11]) was 0.417, the “combination effect with Velcade (BOZ)” value (RPMI 8226 cells; judged by the combination index) was “combination effect is excellent” and the IC50 (HDAC1) was 160 nM.
